Data on three molecules can be found in patent publication US20170119824A1, “A METHOD FOR THE TREATMENT OF GLIOBLASTOMA WITH WHARTON JELLY-MESENCHYMAL STEM CELLS (WJ-MSC) DERIVED FROM HUMAN UMBILICAL CORD” (priority 2014, published 2017).

The assay concerns glioblastoma tumor sample collected from patient. Description: Oncoprint explant tumor culture model, drug sensitivity test with H&E, Ki67 and caspase staining. It counts as cell-based, human. The settings on record: glioma tumor samples in vitro, explant culture in artificial tumor microenvironment. From the text: According to one embodiment herein, Ocoprint® an explants tumor culture model to identify the anti-tumor effect of commonly used chemotherapeutics agents as well as Wharton's jelly derived mesenchymal stem cells on gliomas samples. In the laboratory, a tumor microenvironment similar to the body or physiological environment is created artificially in a dish. The tumor sample collected from patient is placed in this micro-environment in dish. Different anticancer agents including the mesenchymal stem cells derived from umbilical cord are applied on the tumor in the micro-environment. This mimics the application of these anti-cancer agents against the tumor when the tumor is in the human body. Simultaneously a control sample is maintained without any treatment or application of anti-cancer agents. After a specific treatment time or incubation the tumor samples are collected from the microenvironment and are subjected to a set of laboratory tests. […] The tests also reveal that the anti-cancer agents are able to kill tumor cells, reduce the number of tumor cells or limit the growth of tumor cells or the anti-cancer agent is converting the aggressively growing tumor cells to a programmed cell death mode.
The tests which are applied for testing effect of anti-cancer agents on the tumor are 1) Hematoxylin and eosin staining (H & E staining), 2) Ki67 is staining and 3) Caspase staining.
The Ki67 staining indicates the growth pattern of tumor cells.
According to one embodiment herein, Ocoprint® an explants tumor culture model to identify the anti-tumor effect of commonly used chemotherapeutics agents as well as Wharton's jelly derived mesenchymal stem cells on glioma's samples. In the laboratory, a tumor microenvironment similar to the body or physiological environment is created artificially in a dish. The tumor sample collected from the patient is placed in this micro-environment in dish. Different anticancer agents including the mesenchymal stem cells derived from umbilical cord are applied on the tumor in the micro-environment. […]
“Avastin: anti-cancer agent applied to the glioblastoma tumor”: the “Oncoprint sensitivity report: response of glioma samples (responders / non-responders)” value is recorded as “responded”. For the molecule `CNC(=O)c1cc(Oc2ccc(NC(=O)Nc3ccc(Cl)c(C(F)(F)F)c3)cc2)ccn1` [sorafenib], the “Oncoprint sensitivity report: response of glioma samples (responders / non-responders)” value is “have not responded”. Next, `O=C1CCC(N2C(=O)c3ccccc3C2=O)C(=O)N1` (stereo not drawn) [Thalidomide]: “responded”.
